Values quoted from earlier work in patent publication US11478476B2 (CONTERA PHARMA APS, priority 2014, dated 2022).

Experiments:
[1] = biological target: human recombinant dopamine D2 receptor (Homo sapiens, UniProt P14416); details: saturating concentrations of dopamine; read-out: D2 efficacy IC50 ± SEM; cited from earlier work
[2] = biological target: human recombinant dopamine D3 receptor (Homo sapiens, UniProt P35462); details: saturating concentrations of dopamine; read-out: D3 efficacy IC50 ± SEM; cited from earlier work
Chain of human recombinant dopamine D3 receptor (P35462 whole entry): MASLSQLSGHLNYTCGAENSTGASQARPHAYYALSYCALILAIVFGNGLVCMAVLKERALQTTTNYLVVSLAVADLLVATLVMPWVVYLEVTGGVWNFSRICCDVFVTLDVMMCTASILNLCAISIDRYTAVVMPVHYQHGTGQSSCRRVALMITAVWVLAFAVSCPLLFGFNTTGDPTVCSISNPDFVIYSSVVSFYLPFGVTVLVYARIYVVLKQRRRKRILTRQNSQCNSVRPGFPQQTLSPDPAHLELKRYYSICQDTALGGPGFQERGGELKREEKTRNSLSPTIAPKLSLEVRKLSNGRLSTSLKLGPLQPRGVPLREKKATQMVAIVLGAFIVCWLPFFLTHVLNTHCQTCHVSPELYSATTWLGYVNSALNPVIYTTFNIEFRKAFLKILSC

Chain of human recombinant dopamine D2 receptor (P14416 whole entry): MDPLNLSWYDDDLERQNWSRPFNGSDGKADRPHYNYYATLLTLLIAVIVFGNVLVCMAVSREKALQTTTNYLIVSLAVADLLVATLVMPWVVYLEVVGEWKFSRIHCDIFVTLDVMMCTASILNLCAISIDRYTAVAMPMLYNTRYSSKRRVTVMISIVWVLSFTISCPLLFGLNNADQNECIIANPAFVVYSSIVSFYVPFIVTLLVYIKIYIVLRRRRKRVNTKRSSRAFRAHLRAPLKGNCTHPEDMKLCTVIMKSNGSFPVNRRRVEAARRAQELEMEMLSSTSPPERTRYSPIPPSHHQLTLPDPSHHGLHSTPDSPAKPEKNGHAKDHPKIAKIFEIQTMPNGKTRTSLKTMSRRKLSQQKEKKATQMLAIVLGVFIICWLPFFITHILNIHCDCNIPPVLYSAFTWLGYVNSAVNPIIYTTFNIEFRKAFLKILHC

## O=C1CC2(CCCC2)C(O)C(=O)N1CCCCN1CCN(c2ncccn2)CC1 (racemic) [6-OH-Busp]
[1]
  IC50: 3.1 ± 1.8 µM
[2]
  IC50: 4.9 ± 2.8 µM
